Test results: patent US9029557B2, “Labeled A4B2 ligands and methods therefor” (priority 2004, dated 2015)
Read-outs that look alike come from different tables or passages of the source.

Experiments:
α4β2 nAChRs [1] = biological target: T1, α4β2 nAChRs (Rattus norvegicus, UniProt P09483+P12390); details: rat PET, cerebellum as reference region
α4β2 receptors [2] = biological target: T2, α4β2 receptors (Homo sapiens, UniProt P17787+P43681); assay: Affinity of Niofene; assay type: binding
α4β2 nAChRs [3] = biological target: α4β2 nAChRs (Homo sapiens, UniProt P17787+P43681); details: comparison agents; cited from earlier work
α4β2 receptors [4] = biological target: T2, α4β2 receptors; parameters: host or cells: human brain in vivo (SPECT), work done elsewhere; details: human studies; cited from earlier work
α4β2 receptor [5] = test system: α4β2 receptor
Method: The male rhesus monkey (12 kg) was anesthetized using ketamine (10 mg/kg) and xylazine (0.5 mg/kg) and was subsequently maintained on 0.5%-1.5% isoflurane. Two intravenous catheters were placed, one on each arm, for purposes of administration of the radiopharmaceutical and for obtaining blood samples during the study. The head of the animal was placed in the gantry of an ECAT EXACT HR PET scanner and positioned in place with adhesive tape as described previously. A transmission scan using a 68Ge/68Ga rod source was acquired before administration of the radiopharmaceutical to correct for tissue attenuation of the coincident radiation.
Data in the final form are expressed in units of the percentage injected dose per milliliter (% ID/mL) or kilobecquerels per milliliter (kBq/mL). […] Time-activity curves were obtained for all these regions. […] This MRI template of the rhesus (Macaca mulatta) brain is an average of 6 monkeys with T1-weighted MR scans. Postimage processing removed the skull and scalp from the template (courtesy of University of Wisconsin-Madison).

α4β2 receptor [6] = biological target: T3, α4β2 receptor (Rattus norvegicus, UniProt P09483+P12390); details: for % ID/g Blood / % ID/g Cerebellum / % ID/g Cortex / % ID/g Thalamus: i.v. 3.7 MBq
Description: The animals were allowed to recover from anesthesia and had free access to food and water. […] Thalamus, Ctx, cerebellum, and blood were isolated from each rat and placed in preweighed tubes and were counted for 18F radioactivity.

α4β2 receptor sites = α4β2 receptor sites (Rattus norvegicus, UniProt P09483+P12390)
Method: Coronal and horizontal brain slices ([…]) were obtained from male Sprague-Dawley rats. Sets of brain slices were preincubated in buffer (50 mmol/L Tris HCl containing 120 mmol/L NaCl, 5 mmol/L KCl, 2.5 mmol/L CaCl2, 1 mmol/L MgCl2, pH 7.4) for 10 min (26). […] Nonspecific binding was measured in the presence of […] (weighed as nicotine ditartarate). In some experiments, a lower concentration of nicotine (10 μmol/L) was also used. After incubation, slides were washed twice (1 min each) with ice-cold Tris HCl buffer, pH 7.4, followed by a quick rinse in cold deionized water. The slides were then air dried and apposed to phosphor screens overnight and read by the Cyclone Phosphor Imaging System (Packard Instruments Co).

α4β2 receptor [7] = biological target: T3, α4β2 receptor; assay: Autoradiography of 123I-niodene in rat brain sections; assay type: binding; parameters: The brains from male Sprague-Dawley rats (n=4 per group) were extracted and frozen; from tissue; host or cells: rat brain (Sprague-Dawley); details: low specific activity 123I-niodene, 5 nM
alpha4-beta2 receptors = alpha4-beta2 receptors (Rattus norvegicus, UniProt P09483+P12390); details: nicotine 60 μM, horizontal rat brain slices
α3β4 sites = biological target: T4, α3β4 sites (Rattus norvegicus, UniProt P04757+P12392); assay: In vitro binding affinity, inhibition of 125I-IEB in rat brain slices (autoradiography), α3β4 sites; details: 125I-IEB in presence of 200 nmol/L cytisine
T4 construct: The brains from male Sprague-Dawley rats (n=4 per group) were extracted and frozen; from tissue; host or cells: rat brain slices (pineal, interpeduncular nucleus, medial habenula)
Method: (§1) In vitro binding affinity of nifrolidine was measured in rat brain slices labeled with 125I-iodoepibatidine (125I-IEB) or 125I-α-bungarotoxin. The brains from male Sprague-Dawley rats (n=4 per group) were extracted and frozen in isopentane at […].
(§2) Coronal sections (20-μm thick) were prepared from 4 brain levels on a cryostat at […]. […] Competition studies were performed by incubating alternate sections with 125IIEB in the absence or presence of cytisine (200 nmol/L) and nicotine (300 μmol/L) and various concentrations of nifrolidine (0-30 nmol/L). Slides were then rinsed twice for 10 min in ice-cold buffer, dipped briefly in ice-cold water, blown dry, and laid out for autoradiography along with 125I plastic standards of known radioactivity (FIG. 3). […]
(§3) Autoradiograms were quantified with a computer-based image analysis system (MCID; Imaging Research) using calibrated standards of reference. A calibration curve of to optical density against radioligand concentration (fmol/mg tissue) was constructed using values of known radioactivity. Optical densities in discrete regions of the autoradiographic images were measured, and corresponding values of radioactivity were determined by interpolation from the calibration curve. Specific binding values in each region were determined by subtracting binding in the presence of excess inhibitor from total binding values. […]

α3β2 sites = biological target: T5, α3β2 sites (Rattus norvegicus, UniProt P04757+P12390); assay: In vitro binding affinity, inhibition of 125I-IEB in rat brain slices (autoradiography), α3β2 sites; details: 125I-IEB in presence of 200 nmol/L cytisine
T5 construct: The brains from male Sprague-Dawley rats (n=4 per group) were extracted and frozen; from tissue; host or cells: rat brain slices (DLG, SuG, optic tract)
Method: as §1, §2, §3

α7 nAChRs = biological target: T6, α7 nAChRs (Rattus norvegicus, UniProt Q05941); assay: 125I-α-bungarotoxin binding competition in rat brain slices; details: up to a concentration of 30 nmol/L
T6 construct: The brains from male Sprague-Dawley rats (n=4 per group) were extracted and frozen; from tissue; host or cells: rat brain slices (VLG, SuG)
Method: as §1, §2, §3

α4β2 nAChRs [8] = biological target: T1, α4β2 nAChRs; assay: In vitro binding affinity, inhibition of 125I-IEB in rat brain slices (autoradiography), α4β2 sites; parameters: from tissue; host or cells: brain of the living rat (PET); details: p-toluenesulfonate salt
Method: as §1, §2, §3

rat brain α4β2 receptors = biological target: T7, rat brain α4β2 receptors (Rattus norvegicus, UniProt P09483+P12390); assay: Brain homogenate binding assay using 3H-cytisine; details: read-out: Binding affinity Ki for rat brain α4β2 receptors
T7 construct: The brains from male Sprague-Dawley rats (n=4 per group) were extracted and frozen; from tissue; host or cells: rat brain (Sprague-Dawley)

α4β2 receptor [9] = biological target: T3, α4β2 receptor; assay: Displacement of 18F-nifene bound in rat brain slices; assay type: binding; parameters: The brains from male Sprague-Dawley rats (n=4 per group) were extracted and frozen; from tissue; host or cells: rat brain (Sprague-Dawley); details: 10 nM
[10] = rhesus monkey PET, 155 MBq i.v.

T3 sequence (P09483 31-630): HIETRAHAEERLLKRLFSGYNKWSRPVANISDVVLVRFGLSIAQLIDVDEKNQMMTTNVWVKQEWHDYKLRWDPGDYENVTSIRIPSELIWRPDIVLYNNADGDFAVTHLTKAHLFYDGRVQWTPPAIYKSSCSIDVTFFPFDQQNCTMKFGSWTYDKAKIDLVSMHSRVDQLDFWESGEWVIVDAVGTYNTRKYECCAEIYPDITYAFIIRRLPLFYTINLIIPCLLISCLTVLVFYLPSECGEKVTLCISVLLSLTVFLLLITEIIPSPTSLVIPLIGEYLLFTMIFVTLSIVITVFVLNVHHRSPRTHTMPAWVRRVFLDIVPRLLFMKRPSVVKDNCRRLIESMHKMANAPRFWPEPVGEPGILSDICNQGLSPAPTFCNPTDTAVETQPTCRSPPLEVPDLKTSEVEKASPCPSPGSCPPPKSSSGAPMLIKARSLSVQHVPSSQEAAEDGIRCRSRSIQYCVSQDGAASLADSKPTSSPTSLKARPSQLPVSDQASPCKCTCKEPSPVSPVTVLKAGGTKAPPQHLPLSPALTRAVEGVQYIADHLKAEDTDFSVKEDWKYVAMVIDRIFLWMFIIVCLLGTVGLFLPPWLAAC
T3 sequence (P12390 25-500): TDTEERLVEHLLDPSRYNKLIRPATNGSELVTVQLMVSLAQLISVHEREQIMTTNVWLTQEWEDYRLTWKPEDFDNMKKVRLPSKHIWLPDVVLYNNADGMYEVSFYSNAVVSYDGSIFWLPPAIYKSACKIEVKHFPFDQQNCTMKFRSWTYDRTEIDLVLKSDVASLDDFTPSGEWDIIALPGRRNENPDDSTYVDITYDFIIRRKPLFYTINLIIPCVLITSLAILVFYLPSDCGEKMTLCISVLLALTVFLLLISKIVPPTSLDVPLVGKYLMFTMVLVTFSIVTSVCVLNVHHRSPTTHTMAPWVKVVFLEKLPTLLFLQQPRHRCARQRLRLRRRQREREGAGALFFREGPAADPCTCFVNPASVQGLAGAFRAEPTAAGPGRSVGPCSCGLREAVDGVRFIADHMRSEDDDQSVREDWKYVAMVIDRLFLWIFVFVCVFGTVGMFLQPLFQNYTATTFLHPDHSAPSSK
T1 sequence (P09483 31-630): as the sequence (P09483 31-630) above
T1 sequence (P12390 25-500): as the sequence (P12390 25-500) above
Sequence of α4β2 receptor sites (P09483 31-630): as the sequence (P09483 31-630) above
Sequence of α4β2 receptor sites (P12390 25-500): as the sequence (P12390 25-500) above
T6 sequence (Q05941 23-502): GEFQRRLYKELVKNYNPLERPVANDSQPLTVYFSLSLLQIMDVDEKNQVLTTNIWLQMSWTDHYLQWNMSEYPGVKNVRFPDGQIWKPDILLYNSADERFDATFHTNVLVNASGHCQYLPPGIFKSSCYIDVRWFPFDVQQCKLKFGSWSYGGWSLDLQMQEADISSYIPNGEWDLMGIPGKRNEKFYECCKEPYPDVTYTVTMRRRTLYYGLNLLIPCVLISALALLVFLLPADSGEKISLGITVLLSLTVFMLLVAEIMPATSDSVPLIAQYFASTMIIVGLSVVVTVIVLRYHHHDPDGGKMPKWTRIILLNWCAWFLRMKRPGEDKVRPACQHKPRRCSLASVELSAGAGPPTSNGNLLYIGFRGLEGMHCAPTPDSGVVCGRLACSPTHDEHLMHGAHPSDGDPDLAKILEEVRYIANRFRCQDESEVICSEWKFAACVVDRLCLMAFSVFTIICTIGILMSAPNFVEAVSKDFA
T2 sequence (P43681 29-627 limits assumed): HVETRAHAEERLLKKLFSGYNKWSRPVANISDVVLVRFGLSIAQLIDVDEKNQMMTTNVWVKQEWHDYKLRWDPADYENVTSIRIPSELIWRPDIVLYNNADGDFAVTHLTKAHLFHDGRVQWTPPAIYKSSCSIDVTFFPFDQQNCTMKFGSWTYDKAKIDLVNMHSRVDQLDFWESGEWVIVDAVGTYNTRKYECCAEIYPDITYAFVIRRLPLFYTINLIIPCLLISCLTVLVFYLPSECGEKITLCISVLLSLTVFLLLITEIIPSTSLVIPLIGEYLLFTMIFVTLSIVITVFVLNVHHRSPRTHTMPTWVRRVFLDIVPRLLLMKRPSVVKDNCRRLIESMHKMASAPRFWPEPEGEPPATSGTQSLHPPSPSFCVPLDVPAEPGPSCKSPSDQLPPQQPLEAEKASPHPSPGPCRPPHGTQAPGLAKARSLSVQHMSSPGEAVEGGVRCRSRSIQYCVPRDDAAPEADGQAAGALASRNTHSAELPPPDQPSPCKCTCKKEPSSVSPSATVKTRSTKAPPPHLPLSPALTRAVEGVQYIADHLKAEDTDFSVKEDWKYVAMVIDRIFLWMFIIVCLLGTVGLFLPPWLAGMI
T2 sequence (P17787 26-502): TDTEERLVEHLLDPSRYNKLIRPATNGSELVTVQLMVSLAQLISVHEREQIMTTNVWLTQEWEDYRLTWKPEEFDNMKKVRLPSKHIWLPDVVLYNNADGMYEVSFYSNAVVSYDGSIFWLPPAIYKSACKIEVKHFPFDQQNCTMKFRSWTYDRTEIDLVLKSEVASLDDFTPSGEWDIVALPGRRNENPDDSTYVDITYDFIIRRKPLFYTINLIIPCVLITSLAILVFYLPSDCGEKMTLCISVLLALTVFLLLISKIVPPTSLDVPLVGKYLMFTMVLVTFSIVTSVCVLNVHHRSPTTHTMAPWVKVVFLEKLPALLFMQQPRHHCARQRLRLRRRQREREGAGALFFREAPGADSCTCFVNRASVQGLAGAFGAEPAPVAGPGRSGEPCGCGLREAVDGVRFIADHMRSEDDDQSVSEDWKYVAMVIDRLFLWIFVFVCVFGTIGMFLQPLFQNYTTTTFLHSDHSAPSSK
T7 sequence (P09483 31-630): as the sequence (P09483 31-630) above
T7 sequence (P12390 25-500): as the sequence (P12390 25-500) above
Sequence of alpha4-beta2 receptors (P09483 31-630): as the sequence (P09483 31-630) above
Sequence of alpha4-beta2 receptors (P12390 25-500): as the sequence (P12390 25-500) above
T4 sequence (P04757 26-499): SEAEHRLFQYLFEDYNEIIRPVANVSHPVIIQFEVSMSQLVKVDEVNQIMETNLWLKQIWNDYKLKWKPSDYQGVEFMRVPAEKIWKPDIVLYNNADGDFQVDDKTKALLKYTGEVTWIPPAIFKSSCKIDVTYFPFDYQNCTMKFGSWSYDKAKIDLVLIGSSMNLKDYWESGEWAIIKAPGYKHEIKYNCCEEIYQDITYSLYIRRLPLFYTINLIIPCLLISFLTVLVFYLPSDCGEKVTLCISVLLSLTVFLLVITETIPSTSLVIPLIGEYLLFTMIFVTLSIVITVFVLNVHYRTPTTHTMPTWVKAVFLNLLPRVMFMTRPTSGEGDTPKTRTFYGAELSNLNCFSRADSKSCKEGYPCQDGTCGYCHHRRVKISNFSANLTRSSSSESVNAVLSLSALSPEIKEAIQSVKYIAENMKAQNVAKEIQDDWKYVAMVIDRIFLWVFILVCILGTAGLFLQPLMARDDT
T4 sequence (P12392 21-495): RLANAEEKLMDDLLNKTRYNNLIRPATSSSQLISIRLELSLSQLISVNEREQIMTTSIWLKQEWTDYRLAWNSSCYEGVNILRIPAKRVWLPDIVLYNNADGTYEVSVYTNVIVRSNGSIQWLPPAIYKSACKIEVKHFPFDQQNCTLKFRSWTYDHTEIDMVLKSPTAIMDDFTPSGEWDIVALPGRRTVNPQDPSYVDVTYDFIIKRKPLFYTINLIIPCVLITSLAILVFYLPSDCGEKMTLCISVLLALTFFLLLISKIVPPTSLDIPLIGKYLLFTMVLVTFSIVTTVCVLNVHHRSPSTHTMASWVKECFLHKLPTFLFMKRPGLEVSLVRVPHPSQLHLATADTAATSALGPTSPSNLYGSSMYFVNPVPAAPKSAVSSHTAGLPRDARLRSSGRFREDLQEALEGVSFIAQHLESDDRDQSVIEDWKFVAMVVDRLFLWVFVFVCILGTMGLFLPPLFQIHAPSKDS
T5 sequence (P04757 26-499): as the sequence (P04757 26-499) above
T5 sequence (P12390 25-500): as the sequence (P12390 25-500) above
Sequence of α4β2 nAChRs (Homo sapiens, UniProt P17787+P43681) (P43681 29-627 limits assumed): as the sequence (P43681 29-627 limits assumed) above
Sequence of α4β2 nAChRs (Homo sapiens, UniProt P17787+P43681) (P17787 26-502): as the sequence (P17787 26-502) above

[18F]c1ncc(I)cc1OC[C@@H]1C=CCN1 [18F-Niofene, 2-^18F-5-iodo-3-[2-(S)-3,4-dehydropyrrolinylmethoxy]pyridine]
TH/CB at pseudoequilibrium (α4β2 nAChRs [1]): > 2

Fc1ncc(I)cc1OC[C@@H]1C=CCN1 [Niofene, 2-Fluoro-5-iodo-3-[2-(S)-3,4-dehydropyrrolinylmethoxy]pyridine]
affinity (α4β2 receptors [2]): subnanomolar

[18F]c1ncccc1OC[C@@H]1CCN1 [2-FA85380, 2-18F-fluoro-3-(2(S)-azetidinylmethoxy)pyridine]
time to reach pseudoequilibrium (α4β2 nAChRs [3]): 4 to 6 h

Ic1cncc(OC[C@@H]2CCN2)c1 [5-IA85380]
scanning time required (α4β2 receptors [4]): over 6 hrs

[18F]CCCc1cncc(OC[C@@H]2CCCN2)c1 [18F-nifrolidine, 5-(3-18F-fluoropropyl)-3-(2-(S)-pyrrolidinylmethoxy)pyridine]
vital signs (α4β2 receptor [5]; anesthetized rhesus monkey, 155 MBq): did not exhibit any unusual deviations from the baseline values
time of maximal binding in the thalamus following injection (α4β2 receptor [5]; rhesus monkey PET): > 70 min
time to approach transient equilibrium (α4β2 receptor [5]; rhesus monkey PET): about 2.5 hrs
time to plateauing of the thalamus-to-Cb ratio (α4β2 receptor [5]; rhesus monkey PET): 150 min
selective maximal uptake in AVT and AMT (α4β2 receptor [5]; [10]): 0.011 % ID/mL
uptake in VLT (α4β2 receptor [5]; [10]): 0.10 % ID/mL
ratio between the thalamus and the Cb (α4β2 receptor [5]; rhesus monkey PET, about 140 min after injection): approximately 1.7
cortical regions to Cb ratio (α4β2 receptor [5]; rhesus monkey PET, in 120 min): 1.3
thalamus-to-Cb ratio (plateau) (α4β2 receptor [5]; rhesus monkey PET, in 120 min): 1.7
Thalamus-to-cerebellum ratio, Control (α4β2 receptor [6]; rat, 2 min): 1.30
Thalamus-to-cerebellum ratio, Control (α4β2 receptor [6]; rat, 60 min): 3.08
Thalamus-to-cerebellum ratio, Before nicotine (α4β2 receptor [6]; rat, 60 min, nicotine ditartarate 10 mg/kg s.c. 5 min before 18F-nifrolidine): 1.8
Thalamus-to-cerebellum ratio, Control (α4β2 receptor [6]; rat, 120 min): 1.40
% ID/g Blood (α4β2 receptor [6]; rat, 2 min): 0.25 % ID/g
% ID/g Cerebellum (α4β2 receptor [6]; rat, 2 min): 0.24 ± 0.03 % ID/g
% ID/g Cortex (α4β2 receptor [6]; rat, 2 min): 0.21 ± 0.04 % ID/g
% ID/g Thalamus (α4β2 receptor [6]; rat, 2 min): 0.26 ± 0.05 % ID/g
% ID/g Blood (α4β2 receptor [6]; rat, 2 min, listed as 18F-NIFROLIDINE): 0.25 ± 0.09 % ID/g
% ID/g Blood (α4β2 receptor [6]; rat, 60 min): 0.14 ± 0.03 % ID/g
% ID/g Cerebellum (α4β2 receptor [6]; rat, 60 min): 0.12 ± 0.02 % ID/g
% ID/g Cortex (α4β2 receptor [6]; rat, 60 min): 0.25 ± 0.03 % ID/g
% ID/g Thalamus (α4β2 receptor [6]; rat, 60 min): > 0.3 % ID/g
% ID/g Thalamus (α4β2 receptor [6]; rat, 60 min, listed as 18F-NIFROLIDINE): 0.37 ± 0.07 % ID/g
% ID/g Blood (α4β2 receptor [6]; rat, 120 min): < 0.03 % ID/g
% ID/g Cerebellum (α4β2 receptor [6]; rat, 120 min): 0.10 ± 0.02 % ID/g
% ID/g Cortex (α4β2 receptor [6]; rat, 120 min): 0.13 ± 0.04 % ID/g
% ID/g Thalamus (α4β2 receptor [6]; rat, 120 min): 0.14 ± 0.03 % ID/g
% ID/g Blood (α4β2 receptor [6]; rat, 120 min, listed as 18F-NIFROLIDINE): 0.04 ± 0.01 % ID/g
blood-brain barrier penetration (α4β2 receptor [6]; rodents, in vivo): able to cross the blood-brain barrier
binding in cerebellum as % of that found in the AV (α4β2 receptor sites; horizontal rat brain slices): approximately 8%
order of binding in brain regions (α4β2 receptor sites; horizontal slices): thalamus>Ctx>striata>cerebellum

[123I]c1cncc(OCC2C=CCN2)c1 (centres unmarked) [^123I-niodene]
cortex to cerebellum binding ratio (α4β2 receptor [7]): 1.6
thalamus to cerebellum binding ratio (α4β2 receptor [7]): 4

[18F]c1ncccc1OC[C@@H]1C=CCN1 [^18F-Nifene, 2-[^18F]fluoro-3-[2-(S)-pyrrolinyl-3,4-dehydromethoxy]pyridine]
reversal of binding by nicotine (alpha4-beta2 receptors): rapidly reverse

FCCCc1cncc(OC[C@@H]2CCCN2)c1 [nifrolidine, 5-(3′-fluoropropyl)-3-(2-(S)-pyrrolidinylmethoxy)-pyridine]
Ki (α3β4 sites): > 30 nM
Ki (α3β2 sites): > 30 nM
affinity for α7 sites (displacement of 125I-α-bungaratoxin) (α7 nAChRs): no measureable displacement and weak
Ki (α4β2 nAChRs [8]): 2.89 nM

Ic1cncc(OC[C@@H]2C=CCN2)c1 [Niodene, 3-iodo-5-[2-(S)-3-pyrrolinylmethoxy]pyridine]
Ki (rat brain α4β2 receptors): 0.27 nM
displacement of 18F-nifene bound to α4β2 receptors (α4β2 receptor [9]): > 95%
